The assay concerns the target T1, purified holo-IRP1 (Homo sapiens, UniProt P21399).
T1 sequence (P21399 1-889): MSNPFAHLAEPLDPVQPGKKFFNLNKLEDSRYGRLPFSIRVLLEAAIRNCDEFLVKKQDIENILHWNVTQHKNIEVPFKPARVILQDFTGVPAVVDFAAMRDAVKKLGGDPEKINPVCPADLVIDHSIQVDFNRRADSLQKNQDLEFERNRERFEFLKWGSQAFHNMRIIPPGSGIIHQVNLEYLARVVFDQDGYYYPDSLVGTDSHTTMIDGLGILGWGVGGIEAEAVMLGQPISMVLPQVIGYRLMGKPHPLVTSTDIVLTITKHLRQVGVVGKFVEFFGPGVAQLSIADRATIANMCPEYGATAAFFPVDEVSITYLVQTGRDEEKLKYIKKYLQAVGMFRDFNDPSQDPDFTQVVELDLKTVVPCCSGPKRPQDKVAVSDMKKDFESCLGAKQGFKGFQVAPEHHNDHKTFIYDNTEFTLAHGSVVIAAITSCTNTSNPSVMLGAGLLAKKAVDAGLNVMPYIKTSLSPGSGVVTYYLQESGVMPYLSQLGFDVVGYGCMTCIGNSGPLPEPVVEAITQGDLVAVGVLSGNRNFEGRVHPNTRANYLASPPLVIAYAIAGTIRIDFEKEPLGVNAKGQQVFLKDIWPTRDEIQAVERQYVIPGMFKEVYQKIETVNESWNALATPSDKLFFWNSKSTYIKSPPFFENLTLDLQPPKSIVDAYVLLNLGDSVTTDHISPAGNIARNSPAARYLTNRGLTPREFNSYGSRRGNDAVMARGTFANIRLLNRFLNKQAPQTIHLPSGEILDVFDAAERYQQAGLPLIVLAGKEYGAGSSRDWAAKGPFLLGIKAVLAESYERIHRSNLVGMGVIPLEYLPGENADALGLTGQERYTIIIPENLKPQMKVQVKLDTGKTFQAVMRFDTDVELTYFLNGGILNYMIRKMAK
Put plainly: IRE gel shift assay on purified holo-IRP1. Type of assay: biochemical. As to the method: RNA mobility shift assays: Gel retardation assays were performed as described in Meyron-Holtz et al., EMBO J, 23, 386-395 (2004). Tissue lysates were prepared in an anaerobic chamber as described above in oxygen-depleted lysis buffer containing 10 mM HEPES (pH 7.2), 3 mM MgC12, 40 mM KCl, 5% glycerol, 0.2% Nonidet P-40, 5 mM DTT, 1 mM AEBSF, 10 μg/ml. Leupeptin and complete TM EDTA free protease inhibitor cocktail (Roche Applied Science, Indiana). Lysate (x μl) containing 10 μg of total protein was added to (12.5−x) μl of bandshift buffer containing 25 mM Tris-HCl (pH 7.5) and 40 mM KCl. The samples were incubated for 5 min at room temperature (RT) with 12.5 μl of a reaction cocktail containing 20% glycerol, 0.2 U/μl Super RNAsine (Ambion, Tex.), 0.6 μg/μl yeast t-RNA, 5 mM DTT and 20 nM 32P-labelled IRE from human ferritin H-chain gene in 25 mM Tris-HCl (pH 7.5) and 40 mM KCl. A measure of 20 μl of this reaction mixture was loaded into a 10% acrylamide/TBE gel, which was run at 200 V for 2.15 h, and then the gel was fixed, dried and exposed for autoradiography.
Soum et al., J. Biol Inorg Chem, 8, 226-232 (2003). IRE-binding activity of purified holo-IRP1 (11 ng) was assessed by an IRE gel shift assay. Purified protein (11 ng) was incubated with 0.1% β-mercaptoethanol for 2 h at room temperature without (lane 1) or with (lane 2) 1 mM tempol. Sample in lane 3 was treated with 2% β-mercaptoethanol for 2 min after 2 h incubation without tempol.
(In general: Mobility shift assays separate free from complexed probe on a gel.)

Consider `CC1(C)CC(O)CC(C)(C)N1[O]` [Tempo1], for which the “recruitment of IRE-binding activity” value (holo-IRP1, 1.0 mM, 3 h at 37° C., FIG. 6b) was “almost completely recruited”. The “IRE binding activity vs IRP1 exposed to room air alone” value (purified holo-IRP1, 2 h at room temperature and 3 h at 37° C.) was “much higher”. For the setting “purified holo-IRP1 treated with Tempo1”, the “IRE binding activity of IRP1” value is “increased”.

The values above are taken from patent US20100179188A1, “NITROXIDE RADICAL AS TREATMENT FOR NEURODEGENERATION” (Office of Technology Transfer, NIH, priority 2007, published 2010).
